In series [1] the test system is larvae of the mustard beetle (Phaedon cochleariae). Nature of the series: Phaedon larvae test. The class given is in vivo. The following applies: cabbage leaves (Brassica oleracea) dipped into preparation of active compound; result in words. As to the method: (§1) Phaedon larvae test • Solvent: 31 parts by weight of dimethylformamide • Emulsifier: I part by weight of alkylaryl polyglycol ether To produce a suitable preparation of active compound, 1 part by weight of active compound is mixed with the stated amounts of solvent and emulsifier, and the concentrate is diluted with emulsifier-containing water to the desired concentration. Cabbage leaves (Brassica oleracea) are treated by being dipped into the preparation of active compound of the desired concentration and populated with larvae of the mustard beetle (Phaedon cochleariae) while the leaves are still moist. After the desired period of time, the kill in % is determined. 100% means that all beetle larvae have been killed; 0% means that none of the beetle larvae have been killed.

The subject of series [2] is common spider mite (Tetranychus urticae). Nature of the series: Tetranychus test (OP resistent/dip treatment). Type of series: in vivo. The note with it: bean plants (Phaseolus vulgaris) infested by all stages, dip treatment, OP resistent; result in words. As to the method: Tetranychus test (OP resistent/dip treatment) • Solvent: 30 parts by weight of dimethylformamide • Emulsifier: 1 part by weight of alkylaryl polyglycol ether To produce a suitable preparation of active compound, 1 part by weight of active compound is mixed with the stated amounts of solvent and emulsifier, and the concentrate is diluted with emulsifier-containing water to the desired concentration. Bean plants (Phaseolus vulgaris) which are heavily infested by all stages of the common spider mite (Tetranychus urticae) are dipped into a preparation of active compound of the desired concentration. After the desired period of time, the kill in % is determined. 100% means that all spider mites have been killed; 0% means that none of the spider mites have been killed.

Series [3] has as its system larva (L3) of the army worm (Spodoptera frugiperda). The experiment in a line: Spodoptera frugiperda test. Type of series: in vivo. The note with it: preparation pipetted onto synthetic feed, result in words. As for the experimental part:
Spodoptera frugiperda test • Solvent: 31 parts by weight of dimethylformamide • Emulsifier: 1 part by weight of alkylaryl polyglycol ether To produce a suitable preparation of active compound, 1 part by weight of active compound is mixed with the stated amount of solvent and the stated amount of emulsifier, and the concentrate is diluted with emulsifier-containing water to the desired concentration. A stated amount of the preparation of active compound of the desired concentration is pipetted onto a standardized amount of synthetic feed. In 6 repetitions, in each case one larva (L3) of the army worm (Spodoptera frugiperda) is placed on the feed. After the desired period of time, the kill in % is determined. 100% means that all animals have been killed; 0% means that none of the animals have been killed.

Series [4] concerns Heliothis virescens caterpillars. Nature of the series: Heliothis virescens test. The following applies: soya bean shoots (Glycine max) dipped; result in words. Type of series: in vivo. As to the method:
as §1, with “Heliothis virescens” for “Phaedon larvae”, “30” for “31”, “1” for “I”, “Soya bean shoots (Glycine max)” for “Cabbage leaves (Brassica oleracea)”, “Heliothis virescens caterpillars” for “larvae of the mustard beetle (Phaedon cochleariae)”, “caterpillars” for “beetle larvae”

As usually defined, the melting point is the temperature of the solid-liquid transition. For `CCC1COC(C)/C(=C(\C#N)C(=O)c2ccc(Cl)cc2)N1` (centres unmarked) [I-1-a-1, 3-(4-chlorophenyl)-2-(5-ethyl-2-methyl-1,4-oxazinon-3-ylidene)-3-oxopropionitrile], the melting point came to 136 °C.

On to `CC1OCCN/C1=C(/C#N)C(=S)c1cc(C(F)(F)F)cc(C(F)(F)F)c1` (centres unmarked) [I-1-a-2, 3-[3,5-bis(trifluoromethyl)phenyl]-2-(2-methyl-1,4-oxazinan-3-ylidene)-3-thioxopropionitrile], for which the melting point was 195 °C.

Compound `N#CC(C(=O)c1ccc(Cl)cc1)=C1COCCN1` [I-1-a-5, 3-(4-chlorophenyl)-2-(1,4-oxazinan-3-ylidene)-3-oxo-propionitrile] yielded a melting point of 192 °C.

With `N#CC(C(=O)c1cc(C(F)(F)F)cc(C(F)(F)F)c1)=C1CSCCN1` [I-1-a-10, 3-[3,5-bis(trifluoromethyl)phenyl]-2-(1,4-thiazinan-3-ylidene)-3-oxo-propionitrile], the melting point was 182 °C. Moreover, the “activity (kill in %) against Phaedon cochleariae larvae” value in series [1] was “good activity”. Further, in series [2], the “activity (kill in %) against Tetranychus urticae” value was “good activity”.

`CC1OCCNC1=C(C#N)C(=O)c1cc(C(F)(F)F)cc(C(F)(F)F)c1` (centres unmarked) [I-1-a-14, 3-[3,5-bis(trifluoromethyl)phenyl]-2-(2-methyl-1,4-oxazinan-3-ylidene)-3-oxopropionitrile] showed a melting point of 142 °C. The “activity (kill in %) against Spodoptera frugiperda larvae” value in series [3] is “good activity”. In addition, the “activity (kill in %) against Heliothis virescens caterpillars” value in series [4] was “good activity”.

For `N#C/C(C(=O)c1cc(C(F)(F)F)cc(C(F)(F)F)c1)=C1\CS(=O)(=O)CCN1` [I-1-a-15, 3-[3,5-bis(trifluoromethyl)phenyl]-2-(1,1-dioxo-Iλ^6,4-thiazinan-3-ylidene)-3-oxo-propionitrile], the melting point lay within 224 to 226 °C.

In turn, `CC1OCCN/C1=C(/C#N)C(=O)c1cc(-c2ccc(Cl)cc2)cc(C(F)(F)F)c1` (centres unmarked) [I-1-a-37, 3-[3-(4-chlorophenyl)-5-trifluoromethylphenyl]-2-(2-methyl-1,4-oxazinon-3-ylidene)-3-oxopropionitrile] displayed a melting point of 119 °C.

The values above are taken from patent publication US7186829B1, “Aryl-substituted heterocyclic enaminones” (Bayer Aktiengesellschaft, priority 1999, dated 2007).
